Assay results: PubChem BioAssay (NCI)
Where “and” joins values, the source holds several entries; their conditions need not be identical. Equal values may be shown once.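 How tested: cells in 96-well plates exposed to compound for 48 hours at five concentrations. The concentration for 50% growth inhibition is given as GI50. TGI marks complete inhibition of growth.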

Experiments:
Assay in all cases: inhibition of tumour cell growth, NCI panel, 48 h
HCC-2998 colon = test system: HCC-2998 colon
OVCAR-8 ovarian = test system: OVCAR-8 ovarian
RXF 393 renal = test system: RXF 393 renal
786-0 renal = test system: 786-0 renal
COLO 205 colon = test system: COLO 205 colon
UACC-62 melanoma = test system: UACC-62 melanoma
UO-31 renal = test system: UO-31 renal
RPMI-8226 leukemia = test system: RPMI-8226 leukemia
A549 NSCLC = test system: A549 NSCLC
HCT-15 colon = test system: HCT-15 colon

| Compound | TGI (HCC-2998 colon) | TGI (OVCAR-8 ovarian) | TGI (RXF 393 renal) | TGI (786-0 renal) | TGI (COLO 205 colon) | TGI (UACC-62 melanoma) | TGI (UO-31 renal) | TGI (RPMI-8226 leukemia) | TGI (A549 NSCLC) | TGI (HCT-15 colon) | GI50 (OVCAR-8 ovarian) | GI50 (RXF 393 renal) | GI50 (786-0 renal) | GI50 (COLO 205 colon) | GI50 (HCT-15 colon) | GI50 (UACC-62 melanoma) | GI50 (UO-31 renal) | GI50 (RPMI-8226 leukemia) | GI50 (A549 NSCLC) | GI50 (HCC-2998 colon) |
| --- | --- | --- | --- | --- | --- | --- | --- | --- | --- | --- | --- | --- | --- | --- | --- | --- | --- | --- | --- | --- |
| CCCCN(CCCC)CC(C(=O)Nc1ccc([N+](=O)[O-])cc1[N+](=O)[O-])/C(C)=N\NC(=S)NN (configuration not stated) | > 100 µM | > 100 µM | > 100 µM | > 100 µM | > 100 µM | > 100 µM | > 100 µM | > 100 µM | > 100 µM | – | – | – | – | – | – | – | – | – | – | – |
| COC(=O)C1=C(C)N(NC(=O)c2ccccc2)C(C)(O)C12CCOC2=O (configuration not stated) | > 100 µM | > 100 µM | – | 2.68 µM | > 100 µM | > 100 µM | > 100 µM | > 100 µM | > 100 µM | > 100 µM | – | – | – | – | – | – | – | – | – | – |
| O=C(O)CNc1cc(-c2ccccc2)nc(NCC(=O)O)n1 | > 100 µM | > 100 µM | – | > 100 µM | > 100 µM | > 100 µM | > 100 µM | > 100 µM | > 100 µM | > 100 µM | – | – | – | – | – | – | – | – | – | – |
| C[As](C)SC1OC(CO)C(O)C1O (configuration not stated) | – | 3.15 µM | 2.37 µM | 0.655 µM | 10.8 µM | 1.54 µM | 0.555 µM | 0.342 µM | > 61 µM | 1.12 µM | 694 nM | 0.176 µM | 174 nM | 505 nM | 238 nM | 385 nM | 97.3 nM | 100 nM | 2250 nM | – |
| O=C1CN=C(C[N+](=O)[O-])c2ccccc21 | – | > 100 µM | – | > 100 µM | > 100 µM | – | > 100 µM | > 100 µM | > 100 µM | > 100 µM | – | – | – | – | – | – | – | – | – | – |
| CC(=O)OC1Oc2ccccc2-c2oc(=O)c(-c3cc(=O)oc4cc(O)ccc34)cc21 (configuration not stated) | – | > 100 µM | 20.6 µM | 38.4 µM | 51.2 µM | 39 µM | 58.9 µM | 44.1 µM | > 100 µM | 96.4 µM | 19800 nM | 4.5 µM | 16200 nM | 18200 nM | 21300 nM | 18800 nM | 22200 nM | 13100 nM | 24000 nM | – |
| CC(C)(C)OC(=O)NCC(=O)OCc1ccccc1 | > 100 µM | > 100 µM | – | > 100 µM | > 100 µM | > 100 µM | > 100 µM | – | > 100 µM | > 100 µM | – | – | – | – | – | – | – | – | – | – |
| Ic1ccc(Nc2nc3nonc3nc2Nc2ccc(I)cc2)cc1 | > 100 µM | > 100 µM | – | > 100 µM | 0.937 µM | – | – | 0.574 µM | > 100 µM | > 100 µM | 351 nM | – | 332 nM | 265 nM | 144 nM | – | – | 107 nM | 282 nM | 326 nM |
| O=[n+]1c2c(n([O-])c3ccccc31)CCCCCCCCCC2 | – | – | – | > 100 µM | – | > 100 µM | > 100 µM | > 100 µM | > 100 µM | > 100 µM | – | – | – | – | – | – | – | – | – | – |
| COc1ccc(NC(=O)CCc2cc(-c3ccc(O)c(OC)c3)nc(NC#N)n2)cc1 | > 100 µM | > 100 µM | > 100 µM | > 100 µM | > 100 µM | > 100 µM | > 100 µM | – | > 100 µM | > 100 µM | – | – | – | – | – | – | – | – | – | – |
| COC(=O)c1cc2c(cc1O)[C@@H](NC(C)=O)CCc1cc(OC)c(OC)c(OC)c1-2 | – | – | – | > 100 µM | 1.56 µM and 1.18 µM | > 100 µM | > 100 µM | > 100 µM | > 100 µM | – | 40.4 nM | – | 41.6 nM | 23.6 nM | 22.6 nM | 15.9 nM | 62.6 nM | 52.4 nM | 31.3 nM | 35.5 nM |
| Clc1ccc2c(NCCCNc3nccc(Nc4ccc(Br)cc4)n3)ccnc2c1 | 2.93 µM | – | – | 3.45 µM | 3.22 µM | 3.56 µM | 3.01 µM | 4.45 µM | 3.52 µM | 2.7 µM | – | – | 1750 nM | 1640 nM | 1280 nM | 1880 nM | 1520 nM | 1970 nM | 1780 nM | 1500 nM |
| CCOC(=O)Oc1c(OC)cc(C(=O)NC2CCc3cc(OC)c(OC)c(OC)c3-c3ccc(SC)c(=O)cc32)cc1OC (configuration not stated) | 0.187 µM and 0.039 µM | 10.9 µM | – | 13 µM | 0.191 µM and 0.0613 µM | > 70 µM | > 70 µM | – | > 70 µM | 13.6 µM | 15.5 nM | – | 23 nM | 13.8 nM | 132 nM | 8.81 nM | – | – | 28.8 nM | 15.6 nM |
| CNC(=S)NC1CCCCC1NC(=S)NC (configuration not stated) | > 100 µM | > 100 µM | – | > 100 µM | > 100 µM | > 100 µM | > 100 µM | > 100 µM | > 100 µM | > 100 µM | – | – | – | – | – | – | – | – | – | – |
| COc1ncnc(C2CC2)c1-c1ncc2cnn(Cc3ccc(-c4nc(C(F)(F)F)cn4C(C)C)cc3)c2n1 | > 100 µM | > 100 µM | 39.8 µM | > 100 µM | 89.4 µM | – | 36.7 µM | 42.2 µM | > 100 µM | 90.7 µM | 21000 nM | 6.5 µM | 31400 nM | 23500 nM | 17000 nM | – | 3250 nM | 10900 nM | 19300 nM | 23300 nM |
| C=CC1CC12C(=O)C1OC2(C)C2C(=O)c3cc4ccccc4cc3C(=O)C12 (configuration not stated) | > 100 µM | 92.3 µM | 38 µM | 83 µM | > 100 µM | – | > 100 µM | – | > 100 µM | 42.7 µM | 24200 nM | 11.1 µM | 23400 nM | 44700 nM | 11900 nM | – | 53300 nM | – | 38300 nM | 24600 nM |
| Cc1nnc(S(=O)(=O)c2ccc(N=Nc3c(N)nc(N)nc3N)cc2)s1 | – | > 100 µM | > 100 µM | > 100 µM | > 100 µM | > 100 µM | > 100 µM | > 100 µM | > 100 µM | > 100 µM | – | – | – | – | – | – | – | – | – | – |
| CC(C)(C)[SiH]12(OC(C(F)(F)F)(C(F)(F)F)c3ccccc31)OC(C(F)(F)F)(C(F)(F)F)c1ccccc12 | 12.9 µM | 28.9 µM | – | 11.1 µM | 21 µM | – | 19.2 µM | > 100 µM | 19.9 µM | 4.77 µM | – | – | – | – | – | – | – | – | – | – |
| S=C(N/N=C/c1ccco1)NC12CC3CC(CC(C3)C1)C2 | > 100 µM | > 100 µM | > 100 µM | > 100 µM | 33.4 µM | > 100 µM | > 100 µM | – | > 100 µM | > 100 µM | – | – | – | – | – | – | – | – | – | – |
